Legend:
Assay in all cases: relative viability (nuclei count vs DMSO), 5 days (fraction); higher = more cells survive
[1] = compound: Cn1c(=O)n(-c2ccc(C(C)(C)C#N)cc2)c2c3cc(-c4cnc5ccccc5c4)ccc3ncc21 [Dactolisib] + Nc1nc2[nH]cc(CCc3ccc(C(=O)N[C@@H](CCC(=O)O)C(=O)O)cc3)c2c(=O)[nH]1 [Pemetrexed] (partner 0.2 µM)
Outline: (§1)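 Dosing by pin tool came one day after lung cancer cell lines were seeded in 1536-well plates, using either one drug or a fixed anchor-drug dose plus five library-drug doses (not always all listed) in √10 steps. After 5 days, nuclei were counted on 4× images. Relative viability is treated-well nuclei count divided by vehicle-well nuclei count, and values are medians of duplicate plates.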

[2] = compound: Cn1c(=O)n(-c2ccc(C(C)(C)C#N)cc2)c2c3cc(-c4cnc5ccccc5c4)ccc3ncc21 [Dactolisib] + COc1cc2c(Oc3ccc(NC(=O)C4(C(=O)Nc5ccc(F)cc5)CC4)cc3F)ccnc2cc1OCCCN1CCOCC1 [Foretinib] (partner 0.25 µM)
Outline: as §1

[3] = compound: Cn1c(=O)n(-c2ccc(C(C)(C)C#N)cc2)c2c3cc(-c4cnc5ccccc5c4)ccc3ncc21 [Dactolisib] + Cc1nc(Nc2ncc(C(=O)Nc3c(C)cccc3Cl)s2)cc(N2CCN(CCO)CC2)n1 [Dasatinib] (partner 0.075 µM)
Outline: as §1

[4] = compound: C1CCC(CC1)N(CCNCCC2=C3C(=C(C=C2)O)NC(=O)CO3)C(=O)CCNCCC4=CC(=C(C=C4)Cl)Cl [AZ505] + CC(=O)c1c(C)c2cnc(Nc3ccc(N4CCNCC4)cn3)nc2n(C2CCCC2)c1=O [Palbociclib] (partner 0.5 µM)
Outline: as §1

UMC-11
relative viability ([1]; first compound 0.002 µM): 0.855
relative viability ([1]; first compound 0.006325 µM): 0.742
relative viability ([1]; first compound 0.02 µM): 0.552
relative viability ([1]; first compound 0.06325 µM): 0.453
relative viability ([1]; first compound 0.2 µM): 0.26
relative viability ([2]; first compound 0.002 µM): 1.04
relative viability ([2]; first compound 0.006325 µM): 0.882
relative viability ([2]; first compound 0.02 µM): 0.671
relative viability ([2]; first compound 0.06325 µM): 0.273
relative viability ([2]; first compound 0.2 µM): 0.242
relative viability ([3]; first compound 0.002 µM): 0.496
relative viability ([3]; first compound 0.006325 µM): 0.419
relative viability ([3]; first compound 0.02 µM): 0.37
relative viability ([3]; first compound 0.06325 µM): 0.253
relative viability ([3]; first compound 0.2 µM): 0.219
relative viability ([4]; first compound 0.08 µM): 0.303
relative viability ([4]; first compound 0.253 µM): 0.33
relative viability ([4]; first compound 0.8 µM): 0.332
relative viability ([4]; first compound 2.53 µM): 0.337
relative viability ([4]; first compound 8 µM): 0.321

Source: the supplement of paper PMC10307832
